Data as given in article PMC10892719 (Pharmaceutics, 2024).
“Also recorded” adds a separate entry of the source. Read-outs that look alike come from different tables or passages of the source.

Experiments:
[1] = DPPH free radical scavenging (antioxidant) assay; details: read-out: Antioxidant Activity EC50; DPPH method, mean of three independent experiments
Method: The radical scavenging activity (antioxidant capacity) of the herein-developed RIV-IND hybrids was determined by the DPPH method [33]. Working solutions of the compounds in 10% DMSO/MeOH (, HoneywellSeelze, Germany) medium were used to prepare 5 methanolic solutions (5 points, 3 replicates) containing DPPH (Sigma-Aldrich, Steinheim, Germany) and different concentrations of compound up to 3.5 mL total volume. […] The respective antioxidant activity (%AA) was calculated using the following equation: %AA=ADPPH−Aligand/ADPPH×100
The reported results were obtained as the mean values of three independent experiments.
The new RIV-IND compounds were also screened for their radical scavenging activity (EC50), according to the 2,2-diphenyl-1-picrylhydrazyl (DPPH) free radical method.

[2] = biological target: T1, Aβ1-42 (Homo sapiens, UniProt P05067); assay: Inhibition of Aβ1-42 self-aggregation, thioflavin T fluorescence; type: biochemical; details: Cinhibitor = 20 µM, Aβ1-42 40 µM, 37 °C, 24 h, read-out: Aβ42 Self-Aggreg. Inhib
T1 construct: purchased Genecust, Boynes, France
T1 sequence (P05067 672-713 limits assumed): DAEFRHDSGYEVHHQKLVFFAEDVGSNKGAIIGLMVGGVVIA
Method: The Aβ peptide (Genecust, Boynes, France) was treated with 1,1,1,3,3,3-hexafluoropropan-2-ol (HFIP, Aldrich, Steinheim, Germany) and dissolved in a CH3CN/Na2CO3 (300 µM)/NaOH (250 µM) ([…], v/v/v) mixture in order to have a stable stock solution of Aβ1-42 with concentration 500 µM.
Solutions of the assayed compounds (0.5 mg/mL) were firstly prepared in 60% (v/v) DMSO/MeOH medium and then diluted in phosphate buffer (0.215 M, pH 8.0) to a concentration of 120 µM. The Aβ1-42 aggregation inhibition assays were performed according to a reported method based on the fluorescence emission of thioflavin T (ThT, Aldrich Steinheim, Germany). Therefore, Aβ1-42 (40 µM) was incubated at 37 °C for 24 h in phosphate buffer and in the presence or absence of each ligand (20 µM). Then, the samples were added to a 96-well plate with 180 µL of 5 µM ThT in 50 mM glycine-NaOH (pH 8.5) buffer. Blank samples were identically prepared for each concentration but in the absence of the peptide. The ThT fluorescence was measured at 445 nm (excitation) and 485 nm (emission). The percent of aggregation inhibition was calculated by the following equation:I% = 100 − (IFi/IF0 × 100), in which IFi and IF0 are the fluorescence intensities, in the presence and the absence of the tested compound, subtracted from the fluorescence intensities due to the respective blanks. The reported values were obtained as the mean ± SEM of two different experiments performed in duplicate.
The inhibitory capacity of the RIV-IND hybrids towards Aβ42 self-aggregation was evaluated in vitro by molecular fluorescence spectroscopy through the thioflavin T (ThT) method. In fact, since there is an increase in the absorbance and emission of ThT when it binds to amyloid fibrils, it is possible to determine the percent of Aβ42 self-aggregation (see Table 1). The assays were performed in the presence of 20 µM of inhibitor to overcome the solubility limitations of some compounds in the phosphate buffer aqueous medium.

[3] = tested on: SH-SY5Y cells; assay: Cell viability dose-response screening, MTT; type: cell-based, human; details: 24 h, screening 0.5 µM to 20 µM
Method: (§1) Cell viability, following treatment with the compounds, was determined using the colorimetric MTT (3-(4,5-dimethylthiazol-2-yl)-2,5-diphenyltetrazolium bromide) assay. The tested compounds (5a1-3, 5b1-3, 5c1-3) were dissolved in DMSO to produce stock solutions of 25 mM and stored at −20 °C. A concentration screening was performed for 0.5 µM to 20 µM final concentrations to choose the highest nontoxic concentration. SH-SY5Y human neuroblastoma cell line (ATCC-CRL-2266) was cultured in Dulbecco’s modified Eagle’s medium (DMEM) (Gibco-Invitrogen, Life Technologies Ltd., Waltham, MA, USA) with heat-inactivated fetal calf serum (10%), penicillin (50 U/mL) and streptomycin (50 µg/mL) at 37 °C with 5% CO2. Cells were plated at 0.15 × 10^6 cells/mL one day prior to the start of the experiment. The cells were then incubated with the appropriate concentration of the compounds for 24 h. After the incubation period, the cells were washed once with PBS and incubated with 200 µL MTT (0.5 mg/mL) for 2 h at 37 °C with 5% CO2. During this period, cellular dehydrogenase successfully metabolized MTT into formazan, which was then solubilized using 200 µL of 0.04 M HCl/isopropanol. Absorbance was measured at 570 nm.
The new RIV-IND hybrids were tested to determine their protective role in the toxicity induced by either Aβ1-42 peptides or iron/ascorbate. SH-SY5Y cells were incubated with a set of concentrations of each of the compounds and a dose–response curve was constructed to select the highest nontoxic concentration.
Figure 3 Dose–response screening of RIV-IND compounds 5a1-3, 5b1-3 and 5c1-3 measured by MTT reduction ability on SH-SY5Y cells treated with different concentrations of the compounds for 24 h. Results are expressed relatively to untreated cells, with the mean ± standard error of the mean (SEM) derived from three independent experiments. * p < 0.05; ** p < 0.01; *** p < 0.001 compared to untreated cells. (The dot line indicates 100% cellular viability).

[4] = biological target: T2, equine butyrylcholinesterase (eqBChE) (Equus caballus, UniProt P81908); assay: BChE inhibition, adapted Ellman method; type: biochemical; details: for SI (selectivity index): IC50 (AChE)/IC50 (BChE); for IC50: eqBChE, mean of two independent experiments ± SD, read-out: BChE Inhib IC50
T2 construct: purchased Sigma-Aldrich (Steinheim, Germany)
T2 sequence (P81908 whole entry): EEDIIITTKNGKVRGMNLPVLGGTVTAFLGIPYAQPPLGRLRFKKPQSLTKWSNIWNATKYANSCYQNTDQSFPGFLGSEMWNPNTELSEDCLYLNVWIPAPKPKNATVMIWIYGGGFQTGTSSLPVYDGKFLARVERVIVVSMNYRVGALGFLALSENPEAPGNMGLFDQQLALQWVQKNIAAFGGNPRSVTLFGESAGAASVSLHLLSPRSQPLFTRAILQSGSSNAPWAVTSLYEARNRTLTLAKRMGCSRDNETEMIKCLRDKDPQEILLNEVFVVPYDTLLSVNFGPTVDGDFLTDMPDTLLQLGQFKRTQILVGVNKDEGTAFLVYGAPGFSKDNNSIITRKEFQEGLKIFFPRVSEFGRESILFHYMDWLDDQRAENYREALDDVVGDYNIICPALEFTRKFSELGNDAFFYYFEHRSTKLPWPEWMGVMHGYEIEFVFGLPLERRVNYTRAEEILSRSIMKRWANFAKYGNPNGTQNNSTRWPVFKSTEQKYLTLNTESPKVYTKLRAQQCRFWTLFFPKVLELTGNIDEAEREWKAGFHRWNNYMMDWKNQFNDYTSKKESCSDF
Method: (§2) The enzyme inhibition of electric eel acetylcholinesterase (eeAChE) and equine butyrylcholinesterase (eqBChE) by our compounds was evaluated through an adaptation of Elmman´s method using reagents from Sigma-Aldrich (Steinheim, Germany). Stock solutions of each compound (1 mg) in MeOH (1 mL) were prepared and then working solutions for each ligand were obtained by the corresponding dilution of the stock solutions. A control measurement with 5 replicates (without ligand) and a calibration curve of 5 points with 3 replicates per point was performed. The preparation of each solution involved fixed volumes of 4-(2-hydroxyethyl)-1-piperazine-ethanesulfonic acid (HEPES) and cholinesterase (eeAChE or eqBChE) with different volumes of ligand solution, and it was left to rest for 15 min immediately after adding the cholinesterase. A blank solution containing HEPES and MeOH was also prepared at the same time. […] The slope for each calibration point (absorbance versus reaction time) was determined and the inhibition for each compound was calculated by using the following equation: %Inhibition=100−(vi/v0×100) where vi is the reaction rate (slope) for each point of the calibrate with ligand and v0 is the initial reaction rate (slope) for the control point (without ligand). […] Experiments were performed twice for each compound.

[5] = biological target: T3, electric eel acetylcholinesterase (eeAChE) (Electrophorus electricus, UniProt O42275); assay: AChE inhibition, adapted Ellman method; type: biochemical; details: mean of two independent experiments ± SD, read-out: AChE Inhib IC50
T3 construct: purchased Sigma-Aldrich (Steinheim, Germany)
T3 sequence (O42275 24-633): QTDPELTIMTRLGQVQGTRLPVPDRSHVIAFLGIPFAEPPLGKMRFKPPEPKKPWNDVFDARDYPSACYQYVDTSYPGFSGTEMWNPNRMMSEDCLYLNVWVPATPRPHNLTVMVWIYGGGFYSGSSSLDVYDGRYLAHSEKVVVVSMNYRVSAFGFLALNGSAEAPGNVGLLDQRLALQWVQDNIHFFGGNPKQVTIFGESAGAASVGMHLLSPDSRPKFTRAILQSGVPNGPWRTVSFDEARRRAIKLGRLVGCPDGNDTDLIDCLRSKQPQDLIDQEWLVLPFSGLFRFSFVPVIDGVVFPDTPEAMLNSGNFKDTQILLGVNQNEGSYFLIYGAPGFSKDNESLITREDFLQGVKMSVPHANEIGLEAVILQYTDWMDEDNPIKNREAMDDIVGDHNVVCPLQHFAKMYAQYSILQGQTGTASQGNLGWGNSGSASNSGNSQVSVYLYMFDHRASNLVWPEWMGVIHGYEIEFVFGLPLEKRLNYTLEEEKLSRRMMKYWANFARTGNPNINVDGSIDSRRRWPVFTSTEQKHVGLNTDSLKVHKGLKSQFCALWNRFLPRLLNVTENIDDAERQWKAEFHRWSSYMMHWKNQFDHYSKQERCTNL
Method: as §2

[6] = tested on: SH-SY5Y cells; assay: Neuroprotection against Aβ1-42-induced toxicity, MTT; type: cell-based, human; details: Aβ1-42 1 µM, 24 h, optimized concentration of each compound
Method: as §1
To test whether the compounds have a protective effect against toxicity induced by Aβ1-42 or iron/ascorbate, the cells were pre-incubated for 1 h with each compound, followed by the addition of Aβ1-42 or iron/ascorbate and incubation for an additional 24 h. Aβ1-42 (Bachem, Torrance, CA, USA) was prepared in sterile water to produce a stock solution of 443 µM and added to the cells at a final concentration of 1 µM. Ferrous sulfate and L-ascorbic acid (Sigma Chemical Co, St. Louis, MO, USA), prepared in sterile water, were added to the medium together at a final concentration of 5 mM and 2.5 mM, respectively. For this assay, the optimal concentration of each compound was used to prevent cellular demise induced by Aβ1-42 or iron/ascorbate. Compound 5a1 was added to the medium at a 1 µM final concentration; compounds 5a2, 5a3, 5b1, 5b2 and 5c2 were added to the medium at a 2.5 µM final concentration; compounds 5c1 and 5c3 were added to the medium at a 5 µM final concentration; and compound 5b3 was added to the medium at a 10 µM final concentration. […] Controls were employed for each plate using untreated cells and Aβ1-42 or iron/ascorbate only. Cell reduction ability was normalized to the untreated condition. All data are expressed as mean ± SEM of at least three independent experiments performed in duplicate. Statistical analyses were performed for normality assessment using Shapiro–Wilk’s test followed by the Kruskal–Wallis test considering that normality was not verified. Post hoc analysis was performed using uncorrected Dunn’s test. A p value < 0.05 was considered statistically significant.
Figure 4 Neuroprotective effect of RIV-IND compounds against cellular toxicity induced by Aβ1-42 measured by MTT reduction ability on SH-SY5Y cells pretreated with […] for one hour, followed by a 24 h incubation with the optimized concentration of each compound. Results are expressed relatively to untreated cells, with the mean ± standard error of the mean (SEM) derived from three to seven independent experiments. * p < 0.05; ** p < 0.01; *** p < 0.001; **** p < 0.0001 compared to untreated cells. # p < 0.05 compared to Aβ1-42-treated cells. (The dot line indicates the decrease in cellular viability induced by Aβ).

[7] = tested on: SH-SY5Y cells; assay: Neuroprotection against iron/ascorbate-induced toxicity, MTT; type: cell-based, human; details: ferrous sulfate 5 mM and L-ascorbic acid 2.5 mM, 24 h, optimized concentration of each compound
Method: as §1
To test whether the compounds have a protective effect against toxicity induced by Aβ1-42 or iron/ascorbate, the cells were pre-incubated for 1 h with each compound, followed by the addition of Aβ1-42 or iron/ascorbate and incubation for an additional 24 h. Aβ1-42 (Bachem, Torrance, CA, USA) was prepared in sterile water to produce a stock solution of 443 µM and added to the cells at a final concentration of 1 µM. […] All data are expressed as mean ± SEM of at least three independent experiments performed in duplicate. […]
Figure 5 Neuroprotective effect of RIV-IND compounds against cellular toxicity induced by iron/ascorbate (Fe/Asc) measured by MTT reduction ability on SH-SY5Y cells pretreated with iron/ascorbate for one hour, followed by a 24 h incubation with the optimized concentration of each compound. […]

[8] = set-up: method as in PMID 23344203; details: reference antioxidant; read-out: radical scavenging activity EC50; cited from earlier work

SMILES	EC50 [1] [µM]	inhibition at 20 µM [2] [%]	highest nontoxic concentration [3] [µM]	SI (selectivity index) [4]	IC50 [4] [µM]	IC50 [5] [µM]	neuroprotective effect against toxicity induced by Aβ1-42 [6]	neuroprotective effect against toxicity induced by iron/ascorbate [7]	EC50 [8] [µM]
Cc1c(C)c2c(c(C)c1O)CCC(C)(C(=O)O)O2 (stereo not drawn) [Trolox, reference compound]	13.8 ± 0.2								
CCN(C)C(=O)Oc1cccc(CCNC(=O)c2cc3ccccc3[nH]2)c1 [Compound 5c1, 3-(2-(1H-indole-2-carboxamido)ethyl)phenyl ethylmethylcarbamate]	> 2000	25.6	5	2.8	14.5 ± 0.7	40 ± 2			
CCN(C)C(=O)Oc1cccc(NC(=O)c2cc3ccccc3[nH]2)c1 [Compound 5a1]	> 2000	26.9	1	6.0	29.9 ± 0.4				
CCN(C)C(=O)Oc1cccc(CCNC(=O)c2cc3cccc(O)c3[nH]2)c1 [Compound 5c3, 3-(2-(7-Hydroxy-1H-indole-2-carboxamido)ethyl)phenyl ethyl(methyl)carbamate]	20.7 ± 0.4	55.5	5	1.8	14.9 ± 0.7	26.8 ± 0.3	also present neuroprotection		
Cc1c(O)c(=O)ccn1C [Deferiprone, deferiprone, reference compound]	148 ± 3								
CCN(C)C(=O)Oc1cccc(CNC(=O)c2cc3cccc(O)c3[nH]2)c1 [Compound 5b3, 3-((7-Hydroxy-1H-indole-2-carboxamido)methyl)phenyl-ethyl(methyl)carbamate]	20.2 ± 0.4	47.8	10	14.2	5.7 ± 0.3	80.7 ± 0.4		able to significantly increase cell viability after the trigger; also recorded: able to significantly protect cell viability after iron/ascorbate oxidative insult	
CCN(C)C(=O)Oc1cccc(CNC(=O)c2cc3cc(O)ccc3[nH]2)c1 [Compound 5b2, 3-((5-Hydroxy-1H-indole-2-carboxamido)methyl)phenyl-ethyl(methyl)carbamate]	7.8 ± 0.5	29.4	2.5	3.0	27.1 ± 0.1	80 ± 2	can prevent the toxicity induced by Aβ1-42 to cells; also recorded: able to rescue Aβ1-42-induced toxicity to levels that were not significantly different from untreated cells; also recorded: able to prevent the toxicity induced by Aβ1-42 to neuroblastoma cells (SH-SY5Y)		
CCN(C)C(=O)Oc1cccc(NC(=O)c2cc3cc(O)ccc3[nH]2)c1 [Compound 5a2, 3-(5-Hydroxy-1H-indole-2-carboxamido)phenyl ethyl(methyl)carbamate]	8.4 ± 0.2	25	2.5	64.0	3.22 ± 0.02	206 ± 4			
CCN(C)C(=O)Oc1cccc(CCNC(=O)c2cc3cc(O)ccc3[nH]2)c1 [Compound 5c2, 3-(2-(5-Hydroxy-1H-indole-2-carboxamido)ethyl)phenyl ethyl(methyl)carbamate]	8.5 ± 0.6	49.9	2.5	3.8	15.2 ± 0.4	58.6 ± 0.3	can prevent the toxicity induced by Aβ1-42 to cells; also recorded: able to rescue Aβ1-42-induced toxicity to levels that were not significantly different from untreated cells; also recorded: able to prevent the toxicity induced by Aβ1-42 to neuroblastoma cells (SH-SY5Y)		
O=C1O[C@H]([C@@H](O)CO)C(O)=C1O [vitamin C]									15
